Test results as given in patent US4091202A (Zaidan Hojin Biseibutsu Kagaku Kenkyu Kai, priority 1975, dated 1978).
Values after ≈ are worked out from the molar mass of the structure shown. Structures can show the parent of a compound that is named as a salt. Where two headings read alike, the source gives them in different places.

Legend:
[1] = tested on: Klebsiella pneumoniae PCI602; assay: Minimum inhibitory concentration, serial dilution on nutrient agar; assay type: cell-based; settings: 37° C, 41 hours
Description: (§1) Minimum inhibitory concentrations (mcg/ml) of the new compounds of the invention to various bacteria are estimated according to a standard serial dilution method using nutrient agar as the incubation medium, the incubation being made at 37° C for 41 hours.

Shigella sonnei JS11746 = assay: as above; assay type: cell-based; settings: 37° C, 41 hours
Description: as §1

[2] = tested on: Escherichia coli K-12 ML-1410; assay: as above; assay type: cell-based; settings: 41 hours; for M.I.C.: 37° C; for MIC: K12ML1410, 37° C
Description: as §1

[3] = tested on: Escherichia coli K-12 JR66/W677; assay: as above; assay type: cell-based; settings: for M.I.C.: Escherichia coli K-12 JR66/W677, nutrient agar, 37° C, 41 hours; for MIC: Escherichia coli, K12JR66/W677, 41 h
Description: as §1

[4] = tested on: Escherichia coli K-12 R81; assay: as above; assay type: cell-based; settings: for M.I.C.: Escherichia coli K-12 R81, nutrient agar, 37° C, 41 hours; for MIC: Escherichia coli, K12R81, 41 h
Description: as §1

[5] = tested on: Pseudomonas aeruginosa GN315; assay: as above; assay type: cell-based
Description: as §1

Bacillus subtilis PCI219 = assay: as above; assay type: cell-based
Description: as §1

[6] = tested on: Pseudomonas aeruginosa A3; assay: as above; assay type: cell-based; settings: 37° C, 41 hours
Description: as §1

Mycobacterium 607 = assay: as above; assay type: cell-based; settings: 37° C, 41 hours
Description: as §1

[7] = tested on: Staphylococcus aureus FDA 209P; assay: as above; assay type: cell-based; settings: for MIC: FDA209P
Description: as §1

[8] = tested on: Escherichia coli K-12 ML-1629; assay: as above; assay type: cell-based; settings: 41 hours; for M.I.C.: 37° C; for MIC: K12ML1629, 37° C
Description: as §1

[9] = tested on: Pseudomonas aeruginosa No.12; assay: as above; assay type: cell-based; settings: 37° C, 41 hours
Description: as §1

[10] = tested on: Escherichia coli K-12 W677; assay: as above; assay type: cell-based; settings: 41 hours; for M.I.C.: 37° C; for MIC: K12W677, 37° C
Description: as §1

Proteus vulgaris OX19 = assay: as above; assay type: cell-based; settings: 37° C, 41 hours
Description: as §1

[11] = tested on: Escherichia coli K-12 MA290 R55; assay: as above; assay type: cell-based; settings: for M.I.C.: Escherichia coli K-12 MA290 R55, nutrient agar, 37° C, 41 hours; for MIC: Escherichia coli, K12MA290R55, 41 h
Description: as §1

Escherichia coli K-12 = assay: as above; assay type: cell-based
Description: as §1

mice = settings: for LD50 value: intravenous, mice, six per group, 20% w/v in isotonic sodium chloride solution
Bacillus subtilis = assay: Antibacterial potency by cup-assay method; assay type: cell-based; settings: for antibacterial potency: assuming DKB (free base) has 1000 units/mg
[12] = tested on: Staphylococcus aureus Smith S-424; assay: Therapeutic treatment of bacterial infection in mice (ED50); assay type: in vivo; settings: mice infected i.p. with S. aureus Smith S-424, 27.8 × 10^4 cells, single intramuscular injection immediately after inoculation; for ED50: Staphylococcus aureus, SMITHS424, im
Description: Said inoculum is corresponding to a 860-fold quantity of the LD50 dosage of S.aureus Smith S-424. A solution of the test compound in sterile, isotonic sodium chloride solution was intramuscularly injected into the infected mice once immediately after the inoculation of the bacterium at dosages of 0.1 mg, 0.05 mg, 0.025 mg, 0.0125 mg and 0.0063 mg of the test compound per mouse.

in vivo = settings: mouse, iv
[13] = tested on: some kanamycin-resistant bacteria and Pseudomonas aeruginosa; settings: British Patent No. 1,349,302; cited from earlier work
[14] = Pseudomonas aeruginosa GN315, nutrient agar, 37° C, 41 hours
[15] = Bacillus subtilis PCI219, nutrient agar, 37° C, 41 hours
[16] = Staphylococcus aureus FDA 209P, nutrient agar, 37° C, 41 hours
[17] = Escherichia coli K-12, nutrient agar, 37° C, 41 hours
[18] = Pseudomonas aeruginosa GN315, nutrient agar, 37° C, 41 hours, read-out: M.I.C.
[19] = Bacillus subtilis PCI219, nutrient agar, 37° C, 41 hours, read-out: M.I.C.
[20] = Staphylococcus aureus FDA 209P, nutrient agar, 37° C, 41 hours, read-out: M.I.C.

Compound | M.I.C. [1] | M.I.C. (Shigella sonnei JS11746) | M.I.C. [2] | M.I.C. [3] | M.I.C. [4] | M.I.C. [5, 14] | M.I.C. (Bacillus subtilis PCI219; [15]) | M.I.C. [6] | M.I.C. (Mycobacterium 607) | M.I.C. [7, 16] | M.I.C. [8] | M.I.C. [9] | M.I.C. [10] | M.I.C. (Proteus vulgaris OX19) | M.I.C. [11] | M.I.C. (Escherichia coli K-12; [17]) | LD50 value (mice) | MIC [1] | MIC (Shigella sonnei JS11746) | MIC [3] | further results
3',4'-Dideoxykanamycin B-di-N-methylmethane-sulfonic acid and its sodium salt | 0.39 µg/mL | 0.78 µg/mL | 0.78 µg/mL | 50 µg/mL | 0.78 µg/mL | > 100 µg/mL | < 0.2 µg/mL | 0.78 µg/mL | 0.39 µg/mL | < 0.2 µg/mL | 0.78 µg/mL | 1.56 µg/mL | 0.78 µg/mL | < 0.2 µg/mL | 50 µg/mL | 0.78 µg/mL | > 2000 mg/kg | – | – | – | –
O=S(=O)(O)CNC[C@@H]1CC[C@@H](NCS(=O)(=O)O)[C@@H](O[C@H]2[C@H](O)[C@@H](O[C@H]3O[C@H](CO)[C@@H](O)[C@H](NCS(=O)(=O)O)[C@H]3O)[C@H](NCS(=O)(=O)O)C[C@@H]2NCS(=O)(=O)O)O1 [DKB-penta-N-methanesulfonic acid Na salt, 3',4'-dideoxykanamycin B-penta-N-methanesulfonic acid sodium salt] | – | – | – | – | – | – | – | – | – | – | – | – | – | – | – | – | – | 0.39 µg/mL | 1.56 µg/mL | 100 µg/mL | antibacterial potency (Bacillus subtilis): 400 units/mg; MIC [5, 18]: > 100 µg/mL; MIC (Bacillus subtilis PCI219; Bacillus subtilis, PCI219, 41 h): 0.2 µg/mL; MIC ([7]; Staphylococcus aureus, 41 h): < 0.2 µg/mL; MIC [8]: 0.39 µg/mL; MIC [9]: 3.12 µg/mL; MIC (Proteus vulgaris OX19): 0.39 µg/mL; MIC [11]: 100 µg/mL; ED50 [12]: 1.9 mg/kg; LD50 (in vivo): > 5000 mg/kg
3',4'-Dideoxykanamycin B-mono-N-methanesulfonic acid and its sodium salt [DKB-mono-N-methanesulfonic acid Na salt] | 0.39 µg/mL | 0.78 µg/mL | 0.78 µg/mL | 50 µg/mL | 0.78 µg/mL | > 100 µg/mL | < 0.2 µg/mL | 0.78 µg/mL | 0.39 µg/mL | < 0.2 µg/mL | 0.78 µg/mL | 1.56 µg/mL | 0.78 µg/mL | < 0.2 µg/mL | 50 µg/mL | 0.78 µg/mL | > 1500 mg/kg | – | – | – | –
NC[C@@H]1CC[C@@H](N)[C@@H](O[C@H]2[C@H](O)[C@@H](O[C@H]3O[C@H](CO)[C@@H](O)[C@H](N)[C@H]3O)[C@H](N)C[C@@H]2N)O1 [DKB, 3',4'-dideoxykanamycin B, reference compound] | – | – | – | – | – | – | – | – | – | – | – | – | – | – | – | – | – | 0.39 µg/mL (≈ 0.864 µM) | 0.78 µg/mL (≈ 1.73 µM) | 50 µg/mL (≈ 111 µM) | antibacterial activity [13]: high antibacterial activity against some kanamycin-resistant bacteria and Pseudomonas aeruginosa; antibacterial potency (assumed reference value) (Bacillus subtilis; assumed value of the standard): 1000 units/mg; MIC [2]: 0.78 µg/mL (≈ 1.73 µM); MIC [4]: 0.78 µg/mL (≈ 1.73 µM); MIC ([5]; Pseudomonas aeruginosa, GN315, 41 h): > 100 µg/mL; MIC (Bacillus subtilis PCI219; [19]): < 0.2 µg/mL; MIC [6]: 0.78 µg/mL (≈ 1.73 µM); MIC (Mycobacterium 607): 0.39 µg/mL (≈ 0.864 µM); MIC [7, 20]: < 0.2 µg/mL; MIC [8]: 0.78 µg/mL (≈ 1.73 µM); MIC [9]: 1.56 µg/mL (≈ 3.45 µM); MIC [10]: 0.78 µg/mL (≈ 1.73 µM); MIC (Proteus vulgaris OX19): < 0.2 µg/mL; MIC [11]: 50 µg/mL (≈ 111 µM); MIC (Escherichia coli K-12; Escherichia coli, K12, 41 h): 0.78 µg/mL (≈ 1.73 µM); ED50 [12]: 1.15 mg/kg
3',4'-Dideoxykanamycin B-di-N-methanesulfonic acid sodium salt [DKB-di-N-methanesulfonic acid Na salt] | 0.39 µg/mL | 0.78 µg/mL | 0.78 µg/mL | 50 µg/mL | 0.78 µg/mL | > 100 µg/mL | < 0.2 µg/mL | 0.78 µg/mL | 0.39 µg/mL | < 0.2 µg/mL | 0.78 µg/mL | 1.56 µg/mL | 0.78 µg/mL | < 0.2 µg/mL | 50 µg/mL | 0.78 µg/mL | 4250 mg/kg | – | – | – | antibacterial potency (Bacillus subtilis): 590 units/mg; ED50 value [12]: 1.15 mg/kg; acute toxicity relative to that of 3',4'-dideoxykanamycin B itself (mice; intravenous injection into mice, from Table 2): about 1/40
3',4'-Dideoxykanamycin B-tri-N-methanesulfonic acid sodium salt [DKB-tri-N-methanesulfonic acid Na salt] | 0.39 µg/mL | 1.56 µg/mL | 0.78 µg/mL | 100 µg/mL | 0.78 µg/mL | > 100 µg/mL | 0.2 µg/mL | 0.78 µg/mL | 0.78 µg/mL | < 0.2 µg/mL | 0.78 µg/mL | 3.12 µg/mL | 0.78 µg/mL | 0.39 µg/mL | 100 µg/mL | 0.78 µg/mL | > 5000 mg/kg | – | – | – | –
O=S(=O)(O)C(NC[C@@H]1CC[C@@H](NC(c2ccccc2)S(=O)(=O)O)[C@@H](O[C@H]2[C@H](O)[C@@H](O[C@H]3O[C@H](CO)[C@@H](O)[C@H](NC(c4ccccc4)S(=O)(=O)O)[C@H]3O)[C@H](NC(c3ccccc3)S(=O)(=O)O)C[C@@H]2NC(c2ccccc2)S(=O)(=O)O)O1)c1ccccc1 (stereo partly drawn) [3',4'-Dideoxykanamycin B-penta-N-phenylmethanesulfonic acid sodium salt] | – | – | – | – | – | – | – | – | – | – | – | – | – | – | – | – | – | 0.39 µg/mL | 1.56 µg/mL | 100 µg/mL | MIC [2]: 0.78 µg/mL; MIC [4]: 0.78 µg/mL; MIC [5, 18]: > 100 µg/mL; MIC (Bacillus subtilis PCI219; [19]): 0.2 µg/mL; MIC [6]: 0.78 µg/mL; MIC (Mycobacterium 607): 0.78 µg/mL; MIC [7, 20]: < 0.2 µg/mL; MIC [8]: 0.39 µg/mL; MIC [9]: 3.12 µg/mL; MIC [10]: 0.78 µg/mL; MIC (Proteus vulgaris OX19): 0.39 µg/mL; MIC [11]: 100 µg/mL; MIC (Escherichia coli K-12; K12, Escherichia coli K-12, nutrient agar, 37° C, 41 hours, read-out: M.I.C.): 0.78 µg/mL; LD50 (in vivo): > 5000 mg/kg
